The conditions of data set [1]: mice, IV; cited from earlier work.
For data set [2] the following is noted: humans; cited from earlier work.
Data set [3] is described as follows: Physiological monitoring (SaO2, heart rate, respiratory rate, ECG) during MRI, pre versus post contrast agent. It counts as in vivo. The following applies: for changes in SaO2, HR, RR or ECG parameters (ST, T wave morphology, rhythm), pre versus post contrast agent: up to 2 hours after contrast agent. The source says:
Wild type C57BL/6 mice 6-10 months of age (25-30 gr) were used in all experiments. Since variations in physiological processes can influence the MRI signal in the brain, various monitoring devices were used while the mouse was being imaged. Heart rate, respiratory rate and SaO2 were continuously monitored using pulse oximetry (Model V33304, Sergivet). The probe was attached to the lower abdomen. A rectal temperature was continuously monitored with a thermestor (YSI Precision Thermometer 4000A).
ECG was monitored in a physiogard (SM 785, Brucker) by using subcutaneous silver electrodes from the front limbs and the reference electrode placed at the right posterior limb.
Comparisons were made within the groups pre with post contrast agent up to 2 hours after IV (feridex or gadodiamide) or IP GD (10 mmol/kg) (Table 1).
Thus, 10 mmol/kg was identified as the optimum dose of GD, and this dose was used for all further experiment unless otherwise indicated. […] Since the goal is to keep scan time as short as possible, in order to minimize morbidity and mortality, a 45 minutes time point was identified as the optimum post-contrast time interval.

The conditions of data set [4]: rats, IV; cited from earlier work.
Setting [5] is: IP 15 mmol/kg, individual mice with toxicity, listed as GD.

“And” between values parts separate entries of the source, which are not always exact repeats. Equal values may be shown once. Read-outs that look alike come from different tables or passages of the source.

In the case of `CNC(=O)CN(CCN(CCN(CC(=O)[O-])CC(=O)NC)CC(=O)[O-])CC(=O)[O-].[Gd+3]` [gadodiamide], the elimination half-life was 5 to 6 min in data set [1], “approximately 1.5 hours” in data set [2] and “about 20 minutes” in data set [4]. In addition, the “changes in SaO2, HR, RR or ECG parameters (ST, T wave morphology, rhythm), pre versus post contrast agent” value in data set [3] (IP 10 mmol/kg) and in data set [3] (IV) was “No significant changes” throughout. The “RR (respiratory rate)” value in data set [3] (setting [5]) was 100 and 110. Also, the SaO2 in data set [3] (setting [5]) was 72 and 65. In addition, the “toxicity (significant changes in vital signs)” value in data set [3] (IP 15 mmol/kg, two mice, procedure aborted) is reported as “caused toxicity”.

Values taken from patent US20070264200A1, “Mouse MRI for drug screening” (priority 2005, published 2007).
